Test results reported in the supplement of paper PMC10307832.

compound: O=C(/C=C/c1cccnc1)NCCCCC1CCN(C(=O)c2ccccc2)CC1 [Daporinad] + Cc1nc(Nc2ncc(C(=O)Nc3c(C)cccc3Cl)s2)cc(N2CCN(CCO)CC2)n1 [Dasatinib] (partner 0.075 µM); assay: relative viability (nuclei count vs DMSO), 5 days (fraction); higher = more cells survive; details: first compound 0.0005 µM
Procedure, shortened: (§1)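 Cells from lung cancer lines were seeded into 1536-well plates and, one day later, dosed by pin tool. Treatments were either a single drug or a fixed dose of an anchor drug with five library-drug doses (not always all listed) in √10 steps. After 5 days, nuclei were stained in a one-step fixation (final 0.05% Triton X-100, 1% formaldehyde, 1 ug/ml Hoechst) and counted on 4× images, and relative viability is the treated-to-vehicle nuclei ratio, as the median of duplicate plates.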

| Cell Line | relative viability |
| --- | --- |
| NCI-H2347 | 0.326 |
| SW 1573 | 0.339 |
| 201T | 0.52 |
| NCI-H1915 | 0.299 |
| HCC-827 | 0.399 |
| LXF-289 | 0.178 |
| NCI-H23 | 0.895 |
| NCI-H650 | 0.391 |
| CAL-12T | 0.342 |
| NCI-H1651 | 0.419 |
| EPLC-272H | 0.393 |
| NCI-H2228 | 0.543 |
| NCI-H1355 | 0.664 |
| NCI-H3122 | 0.664 |
| NCI-H1437 | 0.342 |
| NCI-H1755 | 0.414 |
| NCI-H2023 | 0.504 |
| HCC-15 | 0.62 |
| PC-3 [JPC-3] | 0.928 |
| EKVX | 0.47 |
| LC-2-ad | 0.622 |
| NCI-H1975 | 0.336 |
| SK-LU-1 | 0.209 |
| NCI-H661 | 0.939 |
| RERF-LC-KJ | 0.757 |

same assay, conditions: first compound 0.001581 µM

| Cell Line | relative viability |
| --- | --- |
| NCI-H322M | 0.266 |
| LCLC-97TM1 | 0.89 |
| NCI-H2009 | 0.337 |
| A-427 | 0.841 |
| NCI-H460 | 0.639 |
| NCI-H1734 | 0.489 |
| NCI-H520 | 0.227 |
| NCI-H2347 | 0.308 |
| SW 1573 | 0.801 |
| 201T | 0.555 |
| NCI-H1915 | 0.331 |
| HCC-827 | 0.283 |
| LXF-289 | 0.292 |
| NCI-H23 | 0.699 |
| NCI-H650 | 0.395 |
| CAL-12T | 0.409 |

| Cell Line | relative viability |
| --- | --- |
| NCI-H1651 | 0.433 |
| EPLC-272H | 0.482 |
| NCI-H2228 | 0.563 |
| NCI-H1355 | 0.674 |
| NCI-H3122 | 0.73 |
| NCI-H1437 | 0.47 |
| NCI-H1755 | 0.435 |
| NCI-H2023 | 0.711 |
| HCC-15 | 0.707 |
| PC-3 [JPC-3] | 1.01 |
| EKVX | 0.535 |
| LC-2-ad | 0.539 |
| NCI-H1975 | 0.364 |
| SK-LU-1 | 0.184 |
| NCI-H661 | 1 |
| RERF-LC-KJ | 0.804 |

same assay, conditions: first compound 0.005 µM

| Cell Line | relative viability |
| --- | --- |
| HCC-78 | 0.328 |
| NCI-H322M | 0.259 |
| LCLC-97TM1 | 0.865 |
| NCI-H2009 | 0.277 |
| A-427 | 0.618 |
| NCI-H460 | 0.489 |
| NCI-H1734 | 0.495 |
| NCI-H520 | 0.162 |
| NCI-H2347 | 0.342 |
| SW 1573 | 0.446 |
| 201T | 0.595 |
| NCI-H1915 | 0.399 |
| HCC-827 | 0.294 |
| LXF-289 | 0.214 |
| NCI-H23 | 0.85 |
| NCI-H650 | 0.473 |
| CAL-12T | 0.37 |

| Cell Line | relative viability |
| --- | --- |
| NCI-H1651 | 0.439 |
| EPLC-272H | 0.458 |
| NCI-H2228 | 0.569 |
| NCI-H1355 | 0.671 |
| NCI-H3122 | 0.807 |
| NCI-H1437 | 0.4 |
| NCI-H1755 | 0.388 |
| NCI-H2023 | 0.631 |
| HCC-15 | 0.686 |
| PC-3 [JPC-3] | 0.943 |
| EKVX | 0.619 |
| LC-2-ad | 0.68 |
| NCI-H1975 | 0.356 |
| SK-LU-1 | 0.204 |
| NCI-H661 | 0.518 |
| RERF-LC-KJ | 0.975 |

same assay, conditions: first compound 0.01581 µM

| Cell Line | relative viability |
| --- | --- |
| HCC-78 | 0.379 |
| NCI-H322M | 0.259 |
| LCLC-97TM1 | 0.844 |
| NCI-H2009 | 0.22 |
| A-427 | 0.338 |
| NCI-H460 | 0.505 |
| NCI-H1734 | 0.462 |
| NCI-H520 | 0.182 |
| NCI-H2347 | 0.299 |
| SW 1573 | 0.367 |
| 201T | 0.6 |
| NCI-H1915 | 0.337 |
| HCC-827 | 0.344 |
| LXF-289 | 0.289 |
| NCI-H23 | 0.829 |
| NCI-H650 | 0.53 |
| CAL-12T | 0.134 |

| Cell Line | relative viability |
| --- | --- |
| NCI-H1651 | 0.446 |
| EPLC-272H | 0.473 |
| NCI-H2228 | 0.554 |
| NCI-H1355 | 0.761 |
| NCI-H3122 | 0.59 |
| NCI-H1437 | 0.415 |
| NCI-H1755 | 0.408 |
| NCI-H2023 | 0.72 |
| HCC-15 | 0.837 |
| PC-3 [JPC-3] | 0.947 |
| EKVX | 0.838 |
| LC-2-ad | 0.765 |
| NCI-H1975 | 0.38 |
| SK-LU-1 | 0.235 |
| NCI-H661 | 0.388 |
| RERF-LC-KJ | 0.804 |

compound: O=C(/C=C/c1cccnc1)NCCCCC1CCN(C(=O)c2ccccc2)CC1 [Daporinad] + O=C(CCCCCCC(=O)Nc1ccccc1)NO [Vorinostat] (partner 1 µM); assay: as above; details: first compound 0.0005 µM
Procedure, shortened: as §1

| Cell Line | relative viability |
| --- | --- |
| HCC-78 | 0.368 |
| NCI-H322M | 0.891 |
| LCLC-97TM1 | 0.547 |
| NCI-H2009 | 0.745 |
| A-427 | 0.838 |
| NCI-H460 | 0.743 |
| NCI-H1734 | 0.837 |
| NCI-H520 | 0.747 |
| NCI-H2347 | 0.586 |
| SW 1573 | 0.715 |
| 201T | 0.965 |
| NCI-H1915 | 0.52 |
| HCC-827 | 0.929 |
| LXF-289 | 0.692 |
| NCI-H23 | 0.624 |
| NCI-H650 | 0.465 |
| CAL-12T | 0.659 |
